Experimental data taken from US6121284A, “2,3-bridged 1,4-dihydropyridines, and their use as medicaments” (Bayer Aktiengesellschaft, priority 1994, dated 2000).

What follows are compounds tested on C6-BU1-glioma cells (assay: 86Rubidium efflux from C6-BU1-glioma cells). Conditions: Rattus norvegicus, C6-BU-1; 1 μM test substance applied; increase in 86Rb efflux above basal efflux caused by ionomycin set at 100%; read-out: residual efflux.
Format: cell-based
Description: ^86 Rubidium Efflux from C6-BU1-glioma cells
The experiments were carried out in accordance with the method described by Tas et al. (Neurosci. Lett. 94, 279-284, (1988)), with slight changes. The increase in efflux above the basal efflux caused by ionomycin is calculated from the data and set at 100%. The stimulations in the presence of test substances are then based on this value.

Compared with `CC1=C(C(=O)OC(C)C)C(c2cccc(Cl)c2Cl)C2=C(CCCC2=O)N1C` (stereo not drawn) [Example 1, Isopropyl 4-(2,3-dichlorophenyl)-1,2-dimethyl-5-oxo-1,4,5,7,8-hexahydroquinoline-3-carboxylate], `COC(=O)C1=C(C)N(C)C2=C(C(=O)OC2)C1c1cccc(F)c1F` (stereo not drawn) [Example 11, Methyl 1,4,5,7-tetrahydro-4-(2,3-difluorophenyl)-1,2-dimethyl-5-oxo-furo-[3,4b]-pyridine-3-carboxylate] is higher in activity at 1 µM: 38% for the first, 73% for the second.

Work on `COC(=O)C1=C(C)N(C)C2=C(C(=O)OC2)C1c1ccc(Cl)cc1` (stereo not drawn) [Example 8, Methyl1,4,5,7-tetrahydro-4-(4-chlorophenyl)-1,2-dimethyl-7-oxo-furo-[3,4b]-pyridine-3-carboxylate] yielded an activity at 1 µM of 53%.
